Data on 57 molecules can be found in ChEMBL document CHEMBL1137102, “Synthesis and evaluation of 2-amino-8-alkoxy quinolines as MCHr1 antagonists. Part 1” (Bioorg Med Chem Lett, 2004).

Series [1] concerns the target T1, Melanin-concentrating hormone receptor 1 (Homo sapiens, UniProt Q99705). As to the kind of experiment: Concentration required to inhibit binding of [125I]MCH radioligand to human melanin-concentrating hormone receptor 1 in IMR-32 I3.4.2 cell membranes.
The target in series [2] is T1, Melanin-concentrating hormone receptor 1. As to the kind of experiment: Concentration required to inhibit 50% of melanin-concentrating hormone induced [Ca2+] flux in IMR-32 cells measured by using a fluorometric imaging plate reader. Type of series: functional, cell-based.
The nature of series [3]: Maximum concentration in brain was determined at the peroral dose of 10 mg/kg in diet-induced obese (DIO) mice; unit may be (ng/mL or ng/g). Type of series: ADME, organism-based. Details: dose 10 mg/kg, route oral. As to conditions: mouse, po.
Series [4] in a line: Maximum concentration in plasma was determined at the peroral dose of 10 mg/kg in diet-induced obese (DIO) mice; unit may be (ng/mL or ng/g). Type of series: ADME, organism-based. Set-up: dose 10 mg/kg, route oral. As to conditions: mouse, po.
Series [5] is described as follows: Half life in brain was determined at the peroral dose of 10 mg/kg in diet-induced obese (DIO) mice. Type of series: ADME, organism-based. Details: dose 10 mg/kg, route oral. Conditions: mouse, po.
The nature of series [6]: Half life in plasma was determined at the peroral dose of 10 mg/kg in diet-induced obese (DIO) mice. Conditions: mouse, po. Type of series: ADME, organism-based. Details: dose 10 mg/kg, route oral.
A short description of series [7]: Area under curve in plasma was determined at the peroral dose of 10 mg/kg in diet-induced obese (DIO) mice; unit may be (ng.h/mL or ng. h/g). The class given is ADME, organism-based. Set-up: dose 10 mg/kg, route oral. As to conditions: mouse, in vivo, po.
Series [8] in a line: Area under curve in brain was determined at the peroral dose of 10 mg/kg in diet-induced obese (DIO) mice; unit may be (ng.h/mL or ng. h/g). Conditions: mouse, in vivo, po. Set-up: dose 10 mg/kg, route oral. Type of series: ADME, organism-based.

SMILES strings stand for the structures.

T1 sequence (Q99705 whole entry): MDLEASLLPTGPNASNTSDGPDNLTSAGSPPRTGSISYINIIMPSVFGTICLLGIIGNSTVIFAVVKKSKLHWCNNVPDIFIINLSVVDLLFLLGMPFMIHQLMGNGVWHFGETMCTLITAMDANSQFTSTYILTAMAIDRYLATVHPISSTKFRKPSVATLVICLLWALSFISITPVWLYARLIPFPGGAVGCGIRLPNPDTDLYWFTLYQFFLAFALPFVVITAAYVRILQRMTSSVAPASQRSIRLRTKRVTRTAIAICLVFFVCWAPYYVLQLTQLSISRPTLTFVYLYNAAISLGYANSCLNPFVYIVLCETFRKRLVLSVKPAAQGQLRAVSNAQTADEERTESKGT

`Nc1ccc2cccc(O)c2n1` registered an IC50 in series [1] of over 2000 nM.

In the case of `CC(C)COc1cccc2ccc(N)nc12`, the IC50 in series [1] was over 2000 nM.

Consider `CC(CC(C)(C)C)Oc1cccc2ccc(N3CCCCC3)nc12` (stereo not drawn), for which the figures for the IC50 in series [1] and in series [2] were over 2000 nM and over 10000 nM, respectively.

With `COCCOCCOc1cccc2ccc(N)nc12`, the IC50 in series [1] was over 2000 nM.

`CC1CCC(Oc2cccc3ccc(N)nc23)C1` (stereo not drawn): in series [1], the IC50 was 823 nM.

Turning to `CC1CCCC(Oc2cccc3ccc(N)nc23)C1` (stereo not drawn), in series [1], the IC50 is 640 nM.

Molecule `CCOCC(C)Oc1cccc2ccc(N)nc12` (stereo not drawn) came in with an IC50 in series [1] of 1070 nM.

In turn, `CSCCOc1cccc2ccc(N)nc12` came in with an IC50 in series [1] of over 2000 nM.

As for `CC(CC(C)(C)C)Oc1cccc2ccc(NCC3CC3)nc12` (stereo not drawn), the concentration for half-maximal inhibition (IC50) in series [1] was over 2000 nM; in series [2], over 10000 nM.

In series [1], `Nc1ccc2cccc(OCCC3CCCCC3)c2n1` returned an IC50 of 808 nM. This lies in the sub-micromolar range.

`Nc1ccc2cccc(OC3CCCCCC3)c2n1`: the half-inhibitory concentration (IC50) was 137 nM in series [1] and 3480 nM in series [2].

Turning to `CNc1ccc2cccc(OC(C)CC(C)(C)C)c2n1` (stereo not drawn), the IC50 in series [1] came to 310 nM; in series [2], 6090 nM.

Take `CC(C)CCOc1cccc2ccc(N)nc12`: the IC50 in series [1] is 614 nM.

With `CC(CC(C)(C)C)Oc1cccc2ccc(NCc3ccc(-c4ccccc4Cl)o3)nc12` (stereo not drawn), the IC50 worked out at 60 nM in series [1] and 530 nM in series [2].

For the molecule `CC1CCC(Oc2cccc3ccc(N)nc23)CC1` (stereo not drawn), in series [1], the IC50 is 349 nM.

In the case of `CC(CC(C)(C)C)Oc1cccc2ccc(N(C)C)nc12` (stereo not drawn), the values for the IC50 in series [1] and in series [2] were over 2000 nM and over 10000 nM, respectively.

For `Nc1ccc2cccc(OCC3CCC3)c2n1`, the IC50 in series [1] is 432 nM.

With `CCOCCOc1cccc2ccc(N)nc12`, the IC50 in series [1] was over 2000 nM.

As to `CC(C)C(C)Oc1cccc2ccc(N)nc12` (stereo not drawn), the half-maximal inhibitory concentration (IC50) in series [1] stood at 199 nM. In other words, the sub-micromolar range.

For the molecule `CCC(CC)Oc1cccc2ccc(N)nc12`, in series [1], the IC50 turned out to be 326 nM.

Consider `COCCOc1cccc2ccc(N)nc12`, for which the IC50 in series [1] was over 2000 nM.

Regarding `Nc1ccc2cccc(OC3CCCCC3)c2n1`, the IC50 in series [1] is 361 nM.

`CCCCCOc1cccc2ccc(N)nc12`: in series [1], the half-inhibitory concentration (IC50) came out at 580 nM.

In turn, `CC1CC1COc1cccc2ccc(N)nc12` (stereo not drawn) came in with an IC50 in series [1] of 1640 nM.

Take `CCCCOc1cccc2ccc(N)nc12`: the IC50 in series [1] was found to be 789 nM. Compared with the last molecule, the IC50 is about 2.1-fold lower.

Consider `Nc1ccc2cccc(OCC3CC4CCC3C4)c2n1` (stereo not drawn), for which the results for the concentration for half-maximal inhibition (IC50) in series [1] and in series [2] were 137 nM and 1730 nM, respectively.

`Nc1ccc2cccc(OCC3CCCC3)c2n1`: the half-inhibitory concentration (IC50) was 53 nM in series [1] and 2290 nM in series [2].

As to `Nc1ccc2cccc(OCC3CCCO3)c2n1` (stereo not drawn), the half-inhibitory concentration (IC50) in series [1] was over 2000 nM.

`CCC(C)Oc1cccc2ccc(N)nc12` (stereo not drawn): the IC50 in series [1] came to 174 nM; in series [2], 5310 nM.

As to `Nc1ccc2cccc(OCCC3CC3)c2n1`, the IC50 in series [1] stood at 492 nM.

Turning to `Nc1ccc2cccc(OCCC(F)(F)F)c2n1`, the IC50 in series [1] came to 722 nM. This IC50 and that of the molecule before are within 1.5-fold of each other.

`CCCCCCOc1cccc2ccc(N)nc12`: the IC50 in series [1] turned out to be 818 nM.

With `CCCC(C)Oc1cccc2ccc(N)nc12` (stereo not drawn), the values for the IC50 in series [1] and in series [2] were 105 nM and 860 nM, respectively.

The molecule `CC(COC(C)(C)C)Oc1cccc2ccc(N)nc12` (stereo not drawn) yielded a half-inhibitory concentration (IC50) in series [1] of 306 nM.

Regarding `COC(C)(C)CCOc1cccc2ccc(N)nc12`, the IC50 in series [1] came to 132 nM; in series [2], 4670 nM.

`Nc1ccc2cccc(OC3CCC3)c2n1` showed a 50% inhibitory concentration (IC50) in series [1] of over 2000 nM.

As for `CC1CCCCC1Oc1cccc2ccc(N)nc12` (stereo not drawn), the half-maximal inhibitory concentration (IC50) in series [1] worked out at 32 nM; in series [2], 1330 nM.

Take `CCC(C)COc1cccc2ccc(N)nc12` (stereo not drawn): the concentration for half-maximal inhibition (IC50) in series [1] was 36 nM. In other words, the double-digit nanomolar range.

Turning to `COCC(C)Oc1cccc2ccc(N)nc12` (stereo not drawn), the IC50 in series [1] was found to be 606 nM.

With `Nc1ccc2cccc(OC3CCCC3)c2n1`, in series [1], the 50% inhibitory concentration (IC50) is over 2000 nM.

Regarding `CC(C)=CCOc1cccc2ccc(N)nc12`, the IC50 in series [1] was over 2000 nM.

In series [1], `CC(C)OCCOc1cccc2ccc(N)nc12` displayed an IC50 of over 2000 nM.

Turning to `Nc1ccc2cccc(OCC3CCOC3)c2n1` (stereo not drawn), the figures for the IC50 in series [1] and in series [2] were 115 nM and 6240 nM, respectively.

With `CC(C)(C)CCOc1cccc2ccc(N)nc12`, the half-maximal inhibitory concentration (IC50) in series [1] was found to be 201 nM.

For `Nc1ccc2cccc(OCC3CCCCC3)c2n1`, the IC50 in series [1] is 90 nM; in series [2], 1680 nM.

`CC(CC(C)(C)C)Oc1cccc2cccnc12` (stereo not drawn): the half-inhibitory concentration (IC50) was over 2000 nM in series [1] and over 10000 nM in series [2].

For the molecule `CC(C)Oc1cccc2ccc(N)nc12`, the IC50 in series [1] was 437 nM.

`CCC(CC)C(C)Oc1cccc2ccc(N)nc12` (stereo not drawn): the results for the IC50 in series [1] and in series [2] were 191 nM and 1300 nM, respectively.

Turning to `Nc1ccc2cccc(OCC3CC3)c2n1`, in series [1], the half-inhibitory concentration (IC50) was over 2000 nM.

As for `CCC#CCOc1cccc2ccc(N)nc12`, in series [1], the half-inhibitory concentration (IC50) is over 2000 nM.

`CC#CCCOc1cccc2ccc(N)nc12`: in series [1], the concentration for half-maximal inhibition (IC50) is over 2000 nM.

In series [1], `CCCOc1cccc2ccc(N)nc12` showed an IC50 of 1100 nM. This lies in the single-digit micromolar range.

Take `CC(CC(C)(C)C)Oc1cccc2ccc(N3CCCC3)nc12` (stereo not drawn): the half-inhibitory concentration (IC50) in series [1] was over 2000 nM; in series [2], over 10000 nM.

`COc1cccc2ccc(N)nc12`: the IC50 in series [1] turned out to be 1590 nM.

`CC(CC(C)(C)C)Oc1cccc2ccc(N)nc12` (single isomer, unassigned): the IC50 was 20 nM in series [1] and 90 nM in series [2]. Further, the values for the Cmax in series [3] and in series [4] were 595 ng/mL and 127 ng/mL, respectively. Besides, the half-life in series [5] was 138 min; in series [6] it was 114 min. Moreover, the values for the AUC in series [7] and in series [8] were 247 ng·h/mL and 1030 ng·h/mL, respectively.

Turning to `CC(CC(C)(C)C)Oc1cccc2ccc(N)nc12` (single isomer, unassigned; (+)), the IC50 was found to be 550 nM in series [1] and 4510 nM in series [2].

Regarding `CC(CC(C)(C)C)Oc1cccc2ccc(N)nc12` (stereo in doubt; 19), the IC50 in series [1] worked out at 41 nM; in series [2] it was 211 nM.

As a reminder, the IC50 is the point on the concentration scale where inhibition reaches its midpoint. Low values mean higher potency, high ones lower potency. Broadly, the Cmax is the maximum level reached in the sampled fluid or tissue. As a reminder, the half-life is the time in which the quantity being followed falls by half. One may read the AUC as concentration integrated over time. A higher AUC goes with more exposure.
